The record followed here is ChEMBL document CHEMBL5678818, “Discovery of potent SOS1 inhibitors that block RAS activation via disruption of the RAS-SOS1 interaction” (Proc Natl Acad Sci U S A, 2019).

The target of experiment [1] is Activated CDC42 kinase 1 (Homo sapiens) (UniProt Q07912). Kind of experiment: Inhibition of TNK2 (unknown origin) assessed as residual activity at 100 nM by KINOMEscan analysis relative to control.
Experiment [2] has as its target Serine/threonine-protein kinase Nek7 (Homo sapiens) (UniProt Q8TDX7). Kind of experiment: Inhibition of NEK7 (unknown origin) assessed as residual activity at 100 nM by KINOMEscan analysis relative to control.
Experiment [3] has as its target Casein kinase I isoform alpha (Homo sapiens) (UniProt P48729). Kind of experiment: Inhibition of CSNK1A1 (unknown origin) assessed as residual activity at 100 nM by KINOMEscan analysis relative to control.
Experiment [4] has as its target Ribosomal protein S6 kinase alpha-3 (Homo sapiens) (UniProt P51812). Kind of experiment: Inhibition of C-terminal RSK2 kinetic domain 2 (unknown origin) assessed as residual activity at 100 nM by KINOMEscan analysis relative to control.
Experiment [5] has as its system Tyrosine-protein kinase ABL1 (Homo sapiens), P00519 [F317L]. Kind of experiment: Inhibition of phosphorylated ABL1 F317L mutant (unknown origin) assessed as residual activity at 100 nM by KINOMEscan analysis relative to control.
The target in experiment [6] is Homeodomain-interacting protein kinase 1 (Homo sapiens) (UniProt Q86Z02). Kind of experiment: Inhibition of HIPK1 (unknown origin) assessed as residual activity at 100 nM by KINOMEscan analysis relative to control.
For experiment [7], the target named is T1, Casein kinase I isoform alpha-like (Homo sapiens) (UniProt Q8N752).
T1 sequence (whole entry): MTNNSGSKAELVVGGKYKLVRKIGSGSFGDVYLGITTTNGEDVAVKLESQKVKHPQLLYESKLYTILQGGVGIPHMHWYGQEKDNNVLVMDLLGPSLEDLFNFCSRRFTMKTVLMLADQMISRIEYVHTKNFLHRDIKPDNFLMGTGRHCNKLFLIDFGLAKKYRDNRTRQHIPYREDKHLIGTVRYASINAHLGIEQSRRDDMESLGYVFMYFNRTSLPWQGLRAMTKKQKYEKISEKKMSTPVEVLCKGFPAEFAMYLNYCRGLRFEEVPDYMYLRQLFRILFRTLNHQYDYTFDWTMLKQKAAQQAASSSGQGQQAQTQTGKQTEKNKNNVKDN
Kind of experiment: Inhibition of CSNK1A1L (unknown origin) assessed as residual activity at 100 nM by KINOMEscan analysis relative to control.

The target in experiment [8] is Glycogen synthase kinase-3 beta (Homo sapiens) (UniProt P49841). Kind of experiment: Inhibition of GSK3B (unknown origin) assessed as residual activity at 100 nM by KINOMEscan analysis relative to control.
In experiment [9] the target is Serine/threonine-protein kinase SIK3 (Homo sapiens) (UniProt Q9Y2K2). Kind of experiment: Inhibition of QSK (unknown origin) assessed as residual activity at 100 nM by KINOMEscan analysis relative to control.
Experiment [10] has as its target T2, Receptor-interacting serine/threonine-protein kinase 4 (Homo sapiens) (UniProt P57078).
T2 sequence (whole entry): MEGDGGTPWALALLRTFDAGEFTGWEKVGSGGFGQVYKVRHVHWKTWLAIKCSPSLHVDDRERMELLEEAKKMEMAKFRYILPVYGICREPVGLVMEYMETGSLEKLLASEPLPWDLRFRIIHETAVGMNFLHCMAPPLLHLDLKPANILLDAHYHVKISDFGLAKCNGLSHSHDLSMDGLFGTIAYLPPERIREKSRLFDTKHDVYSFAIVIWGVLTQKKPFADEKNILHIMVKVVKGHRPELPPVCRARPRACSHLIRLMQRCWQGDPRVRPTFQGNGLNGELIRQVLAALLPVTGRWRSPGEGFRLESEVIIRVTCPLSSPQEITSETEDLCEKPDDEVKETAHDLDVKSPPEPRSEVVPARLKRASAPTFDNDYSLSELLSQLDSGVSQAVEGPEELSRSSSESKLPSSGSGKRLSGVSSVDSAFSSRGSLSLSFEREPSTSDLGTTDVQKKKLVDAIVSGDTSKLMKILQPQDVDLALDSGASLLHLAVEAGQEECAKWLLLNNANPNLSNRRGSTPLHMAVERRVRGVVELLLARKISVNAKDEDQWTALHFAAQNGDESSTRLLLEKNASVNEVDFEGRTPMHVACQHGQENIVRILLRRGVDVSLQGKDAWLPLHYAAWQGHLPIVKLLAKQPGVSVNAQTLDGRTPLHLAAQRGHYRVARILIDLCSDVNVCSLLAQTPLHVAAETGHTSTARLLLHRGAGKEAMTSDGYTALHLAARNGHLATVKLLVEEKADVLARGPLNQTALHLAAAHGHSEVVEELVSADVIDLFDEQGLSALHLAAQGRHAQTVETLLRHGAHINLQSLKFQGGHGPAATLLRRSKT
Kind of experiment: Inhibition of RIPK4 (unknown origin) assessed as residual activity at 100 nM by KINOMEscan analysis relative to control.

The target of experiment [11] is CDK4/Cyclin D3 (Homo sapiens) (UniProt P11802+P30281). Kind of experiment: Inhibition of CDK4-cyclin D3 (unknown origin) assessed as residual activity at 100 nM by KINOMEscan analysis relative to control. In kind it is protein-complex assay.
Experiment [12] addresses T3, Serine/threonine-protein kinase tousled-like 1 (Homo sapiens) (UniProt Q9UKI8).
T3 sequence (whole entry): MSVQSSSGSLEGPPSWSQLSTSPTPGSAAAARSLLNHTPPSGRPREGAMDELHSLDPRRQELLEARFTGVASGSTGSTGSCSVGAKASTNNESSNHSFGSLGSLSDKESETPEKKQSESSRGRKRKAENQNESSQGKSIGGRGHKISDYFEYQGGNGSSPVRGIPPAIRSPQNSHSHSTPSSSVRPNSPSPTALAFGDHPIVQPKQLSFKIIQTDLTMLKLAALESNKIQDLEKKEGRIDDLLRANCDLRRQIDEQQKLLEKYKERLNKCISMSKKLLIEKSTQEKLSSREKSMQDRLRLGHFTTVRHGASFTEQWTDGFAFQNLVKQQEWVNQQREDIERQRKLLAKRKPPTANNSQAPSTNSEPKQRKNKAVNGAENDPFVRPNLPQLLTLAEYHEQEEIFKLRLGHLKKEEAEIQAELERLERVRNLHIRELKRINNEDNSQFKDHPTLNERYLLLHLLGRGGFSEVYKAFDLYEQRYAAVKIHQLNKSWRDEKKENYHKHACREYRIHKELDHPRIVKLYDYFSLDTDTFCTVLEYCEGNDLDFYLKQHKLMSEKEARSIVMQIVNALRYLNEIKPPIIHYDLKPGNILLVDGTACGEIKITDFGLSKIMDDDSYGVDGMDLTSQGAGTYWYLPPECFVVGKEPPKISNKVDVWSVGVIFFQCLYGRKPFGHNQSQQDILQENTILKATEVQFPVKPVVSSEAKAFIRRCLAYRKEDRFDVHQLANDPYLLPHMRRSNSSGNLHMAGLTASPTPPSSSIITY
Kind of experiment: Inhibition of TLK1 (unknown origin) assessed as residual activity at 100 nM by KINOMEscan analysis relative to control.

Chain of Tyrosine-protein kinase ABL1 (Homo sapiens), P00519 [F317L] (P00519 whole entry F317L): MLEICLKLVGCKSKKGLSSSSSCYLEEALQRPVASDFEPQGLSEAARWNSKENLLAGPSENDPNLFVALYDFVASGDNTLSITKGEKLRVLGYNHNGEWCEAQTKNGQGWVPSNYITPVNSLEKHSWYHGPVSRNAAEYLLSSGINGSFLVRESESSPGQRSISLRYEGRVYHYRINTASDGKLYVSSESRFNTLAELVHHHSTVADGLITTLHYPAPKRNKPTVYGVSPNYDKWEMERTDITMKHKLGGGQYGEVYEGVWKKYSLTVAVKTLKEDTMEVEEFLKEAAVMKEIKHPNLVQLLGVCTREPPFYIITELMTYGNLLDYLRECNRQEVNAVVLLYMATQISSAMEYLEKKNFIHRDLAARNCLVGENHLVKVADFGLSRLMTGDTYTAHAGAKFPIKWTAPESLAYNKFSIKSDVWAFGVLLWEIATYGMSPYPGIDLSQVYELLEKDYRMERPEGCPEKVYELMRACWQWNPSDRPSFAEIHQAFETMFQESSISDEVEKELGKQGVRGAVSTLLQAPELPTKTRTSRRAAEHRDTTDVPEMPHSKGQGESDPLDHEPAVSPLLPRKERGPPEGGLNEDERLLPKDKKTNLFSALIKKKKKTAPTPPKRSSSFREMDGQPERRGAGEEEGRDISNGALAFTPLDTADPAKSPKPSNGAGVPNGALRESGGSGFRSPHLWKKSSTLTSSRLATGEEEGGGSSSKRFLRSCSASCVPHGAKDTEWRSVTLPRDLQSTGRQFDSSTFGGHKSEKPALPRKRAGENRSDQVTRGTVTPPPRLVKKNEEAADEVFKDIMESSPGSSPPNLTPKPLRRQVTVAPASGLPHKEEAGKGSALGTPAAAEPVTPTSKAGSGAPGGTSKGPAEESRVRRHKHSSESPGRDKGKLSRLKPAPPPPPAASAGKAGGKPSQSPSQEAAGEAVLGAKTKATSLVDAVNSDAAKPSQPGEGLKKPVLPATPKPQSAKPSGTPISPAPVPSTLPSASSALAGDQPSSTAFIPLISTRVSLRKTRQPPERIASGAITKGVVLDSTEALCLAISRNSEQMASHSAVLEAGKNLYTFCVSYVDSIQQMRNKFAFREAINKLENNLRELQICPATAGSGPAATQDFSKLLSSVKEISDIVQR
Chain of Casein kinase I isoform alpha (Homo sapiens) (P48729 2-337 limits assumed): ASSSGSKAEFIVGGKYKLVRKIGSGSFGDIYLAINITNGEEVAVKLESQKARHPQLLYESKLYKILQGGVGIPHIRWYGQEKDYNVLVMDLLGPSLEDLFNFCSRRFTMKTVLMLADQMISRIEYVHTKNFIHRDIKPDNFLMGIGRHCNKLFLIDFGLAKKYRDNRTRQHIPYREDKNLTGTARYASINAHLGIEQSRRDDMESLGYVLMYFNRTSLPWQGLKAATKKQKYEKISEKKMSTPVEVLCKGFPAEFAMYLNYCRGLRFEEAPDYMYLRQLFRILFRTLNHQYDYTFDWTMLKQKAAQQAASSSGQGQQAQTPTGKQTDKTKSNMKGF
Chain of Ribosomal protein S6 kinase alpha-3 (Homo sapiens) (P51812 whole entry, the tested form may be a part): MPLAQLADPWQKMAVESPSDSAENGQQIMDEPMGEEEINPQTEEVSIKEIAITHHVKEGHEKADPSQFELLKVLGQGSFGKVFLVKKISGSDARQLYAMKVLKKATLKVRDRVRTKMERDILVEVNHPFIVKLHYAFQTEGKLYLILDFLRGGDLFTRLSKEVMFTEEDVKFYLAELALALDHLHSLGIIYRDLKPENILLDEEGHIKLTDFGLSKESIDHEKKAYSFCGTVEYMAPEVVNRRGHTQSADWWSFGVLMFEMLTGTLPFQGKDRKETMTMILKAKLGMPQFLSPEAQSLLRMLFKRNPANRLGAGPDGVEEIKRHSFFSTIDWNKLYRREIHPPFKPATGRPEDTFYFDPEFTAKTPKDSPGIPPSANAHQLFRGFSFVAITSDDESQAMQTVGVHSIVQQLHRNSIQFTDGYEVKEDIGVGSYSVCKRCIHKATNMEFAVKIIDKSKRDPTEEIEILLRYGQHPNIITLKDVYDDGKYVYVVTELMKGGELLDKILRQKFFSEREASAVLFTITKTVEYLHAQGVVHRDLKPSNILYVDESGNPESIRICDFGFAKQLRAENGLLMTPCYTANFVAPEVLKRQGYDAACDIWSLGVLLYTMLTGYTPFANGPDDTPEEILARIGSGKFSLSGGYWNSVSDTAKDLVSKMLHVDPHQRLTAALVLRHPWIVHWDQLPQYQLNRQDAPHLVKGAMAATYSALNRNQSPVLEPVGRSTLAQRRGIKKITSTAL
Chain of Homeodomain-interacting protein kinase 1 (Homo sapiens) (Q86Z02 whole entry, looked up, canonical isoform): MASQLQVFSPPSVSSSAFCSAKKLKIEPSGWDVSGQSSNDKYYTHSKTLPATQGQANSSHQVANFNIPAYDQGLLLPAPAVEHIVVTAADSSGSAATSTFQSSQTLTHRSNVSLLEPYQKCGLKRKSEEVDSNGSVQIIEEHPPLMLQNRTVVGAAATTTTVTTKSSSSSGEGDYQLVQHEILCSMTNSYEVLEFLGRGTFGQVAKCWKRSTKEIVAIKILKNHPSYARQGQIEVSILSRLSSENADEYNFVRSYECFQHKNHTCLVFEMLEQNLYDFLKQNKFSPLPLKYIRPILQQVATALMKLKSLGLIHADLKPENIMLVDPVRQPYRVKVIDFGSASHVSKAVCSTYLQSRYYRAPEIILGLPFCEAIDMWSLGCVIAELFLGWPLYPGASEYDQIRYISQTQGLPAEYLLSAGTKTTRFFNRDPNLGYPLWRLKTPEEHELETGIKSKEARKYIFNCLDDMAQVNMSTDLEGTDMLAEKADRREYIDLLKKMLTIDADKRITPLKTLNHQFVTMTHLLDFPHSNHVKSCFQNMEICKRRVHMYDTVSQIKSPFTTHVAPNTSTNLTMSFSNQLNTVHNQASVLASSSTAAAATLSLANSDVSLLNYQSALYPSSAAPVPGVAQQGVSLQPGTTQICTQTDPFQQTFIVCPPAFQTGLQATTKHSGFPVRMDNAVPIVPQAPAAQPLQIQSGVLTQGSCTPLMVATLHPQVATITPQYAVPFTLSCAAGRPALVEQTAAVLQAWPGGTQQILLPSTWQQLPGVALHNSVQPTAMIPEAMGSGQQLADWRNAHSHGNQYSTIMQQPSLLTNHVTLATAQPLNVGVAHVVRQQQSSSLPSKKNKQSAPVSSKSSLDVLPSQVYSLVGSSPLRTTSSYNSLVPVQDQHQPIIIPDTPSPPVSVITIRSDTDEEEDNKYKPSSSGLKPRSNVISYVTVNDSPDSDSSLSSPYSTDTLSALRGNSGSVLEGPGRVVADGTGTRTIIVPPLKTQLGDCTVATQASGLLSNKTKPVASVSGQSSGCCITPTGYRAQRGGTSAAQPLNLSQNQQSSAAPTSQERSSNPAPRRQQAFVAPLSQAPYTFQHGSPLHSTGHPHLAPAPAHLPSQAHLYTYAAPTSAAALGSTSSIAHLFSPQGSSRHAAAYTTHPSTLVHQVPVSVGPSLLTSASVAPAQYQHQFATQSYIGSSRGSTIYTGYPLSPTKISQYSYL
Chain of Serine/threonine-protein kinase Nek7 (Homo sapiens) (Q8TDX7 whole entry, looked up, canonical isoform): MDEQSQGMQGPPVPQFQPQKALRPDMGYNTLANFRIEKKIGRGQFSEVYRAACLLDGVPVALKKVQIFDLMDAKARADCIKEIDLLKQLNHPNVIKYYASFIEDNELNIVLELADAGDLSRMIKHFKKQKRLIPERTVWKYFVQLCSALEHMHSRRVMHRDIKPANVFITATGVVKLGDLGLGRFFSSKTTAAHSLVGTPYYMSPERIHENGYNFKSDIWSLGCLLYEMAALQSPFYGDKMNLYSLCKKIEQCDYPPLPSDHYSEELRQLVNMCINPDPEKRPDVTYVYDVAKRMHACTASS
Chain of Glycogen synthase kinase-3 beta (Homo sapiens) (P49841 whole entry, looked up): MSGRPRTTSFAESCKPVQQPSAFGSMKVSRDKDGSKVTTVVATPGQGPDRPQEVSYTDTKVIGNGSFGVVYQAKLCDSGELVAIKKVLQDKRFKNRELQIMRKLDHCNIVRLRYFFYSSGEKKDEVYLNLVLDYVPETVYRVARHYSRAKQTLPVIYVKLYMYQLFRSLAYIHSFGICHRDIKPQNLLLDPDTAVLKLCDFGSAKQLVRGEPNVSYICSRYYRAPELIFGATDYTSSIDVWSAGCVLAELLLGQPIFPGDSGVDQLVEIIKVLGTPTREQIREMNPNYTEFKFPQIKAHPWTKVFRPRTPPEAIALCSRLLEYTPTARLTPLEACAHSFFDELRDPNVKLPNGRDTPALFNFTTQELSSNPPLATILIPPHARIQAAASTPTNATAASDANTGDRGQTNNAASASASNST

Turning to `COc1cc2ncnc(N[C@H](C)c3cccc4ccccc34)c2cc1OC`, the Activity in [1] is 100%; in [2], 100%; in [3], 93%; in experiment [4], 92%; in [5], 86%; in experiment [6], 75%. The Activity amounted to 100% in experiment [7]; 94% in experiment [8]; 94% in experiment [9]; 77% in experiment [10]; 100% in [11]; 79% in experiment [12].
